Key:
[1] = target: Mcl-1 protein (UniProtKB Q07820) (Homo sapiens (Human), UniProt Q07820); assay: Inhibition of Mcl-1 by the fluorescence polarisation assay (Example A, Method A); type: binding; details: fluorescence polarization assay
Summary of the method: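 Protein (5 nM) and fluorescein-tagged peptide tracer (1 nM) incubated with 11-point compound series for 2 h at room temperature in HEPES/NaCl/Tween 20 buffer, pH 7.4, 5% DMSO. Displacement read as decrease in polarisation; IC50 fitted by 4-parameter logistic, converted to Ki (cKi or eKi).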

[2] = test system: H929 multiple myeloma tumor line; assay: In vitro cytotoxicity, MTT assay (Example B, Method A); type: cell-based; details: Homo sapiens, NCI-H929, 48 h, H929 cells, 48 hours exposure, read-out: C50
Procedure: The cytotoxicity studies were carried out on the H929 multiple myeloma tumor line.
The cells are distributed onto microplates and exposed to the test compounds for 48 hours. The cell viability is then quantified by a colorimetric assay, the Microculture Tetrazolium Assay (Carmichael et al, Cancer Res. 1987, 47, 939-942).
The results are expressed in C50 which means concentration corresponding to […] of effect/inhibition.

Chain of Mcl-1 protein (Q07820 whole entry): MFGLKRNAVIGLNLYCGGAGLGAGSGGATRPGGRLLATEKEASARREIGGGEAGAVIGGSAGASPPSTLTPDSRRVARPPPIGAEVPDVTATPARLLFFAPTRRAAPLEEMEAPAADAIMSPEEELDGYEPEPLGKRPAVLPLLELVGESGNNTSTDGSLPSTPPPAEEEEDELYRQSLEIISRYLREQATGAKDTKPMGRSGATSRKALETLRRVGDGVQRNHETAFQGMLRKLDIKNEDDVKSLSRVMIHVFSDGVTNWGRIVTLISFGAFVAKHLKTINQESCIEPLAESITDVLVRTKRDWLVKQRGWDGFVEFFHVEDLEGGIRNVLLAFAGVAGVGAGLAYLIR

SMILES	Ki [1]	IC50 [2]
O=C(O)[C@]1(Nc2cccc(Cl)c2)CC[C@@]2(CC1)c1ccccc1C[C@@H]2C[C@H](COc1cccnc1)c1ccccc1 [Example 551, (1r,2′S,4S)-4-(3-chloroanilino)-2′-{(2S)-2-phenyl-3-[(pyridin-3-yl)oxy]propyl}-2′,3′-dihydrospiro[cyclohexane-1,1′-indene]-4-carboxylic acid]	607 nM	15900 nM
O=C(O)[C@]1(Nc2cccc(Cl)c2)CC[C@]2(CC1)C(c1ccc(Oc3ccccc3)cc1)=Cc1ccccc12 [Example 341, (1s,4s)-4-(3-chloroanilino)-2′-(4-phenoxyphenyl)spiro[cyclohexane-1,1′-indene]-4-carboxylic acid]	159 nM	9260 nM
O=C(O)[C@]1(Nc2cccc(Cl)c2)CC[C@]2(CC1)C(c1cccc(OCc3ccncc3)c1)=Cc1ccccc12 [Example 362, (1s,4s)-4-(3-chloroanilino)-2′-{3-[(pyridin-4-yl)methoxy]phenyl}spiro[cyclohexane-1,1′-indene]-4-carboxylic acid]	174 nM	21600 nM
Cc1c[nH]c2cccc(OCCC[C@H]3Cc4ccccc4[C@]34CC[C@@](Nc3cccc(Cl)c3)(C(=O)O)CC4)c12 [Example 484, (1r,2′S,4S)-4-(3-chloroanilino)-2′-{3-[(3-methyl-1H-indol-4-yl)oxy]propyl}-2′,3′-dihydrospiro[cyclohexane-1,1′-indene]-4-carboxylic acid]	759 nM	9640 nM
O=C(O)[C@]1(Nc2cccc(Cl)c2)CC[C@@]2(CC1)c1ccccc1CC2CCCOc1ccnc2[nH]ccc12 (some centres unmarked) [Example 445, (1r,4r)-4-(3-chloroanilino)-2′-{3-[(1H-pyrrolo[2,3-b]pyridin-4-yl)oxy]propyl}-2′,3′-dihydrospiro[cyclohexane-1,1′-indene]-4-carboxylic acid]	75.3 nM	5350 nM
C[C@@H](COc1ccnc2c1CCCCC2O)C[C@H]1Cc2ccccc2[C@]12CC[C@@](Nc1cccc(Cl)c1)(C(=O)O)CC2 (stereo partly drawn) [Example 634, (1r,2′S,4S)-4-(3-chloroanilino)-2′-{(2R)-3-[(9-hydroxy-6,7,8,9-tetrahydro-5H-cyclohepta[b]pyridin-4-yl)oxy]-2-methylpropyl}-2′,3′-dihydrospiro[cyclohexane-1,1′-indene]-4-carboxylic acid]	86.8 nM	4230 nM
O=C(O)[C@]1(Nc2cccc(Cl)c2)CC[C@@]2(CC1)c1ccccc1C[C@@H]2C[C@@H](COc1ccncc1)c1ccccc1 [Example 552, (1r,2′S,4S)-4-(3-chloroanilino)-2′-{(2R)-2-phenyl-3-[(pyridin-4-yl)oxy]propyl}-2′,3′-dihydrospiro[cyclohexane-1,1′-indene]-4-carboxylic acid]	110 nM	3380 nM
O=C(O)[C@]1(Nc2cccc(Cl)c2)CC[C@@]2(CC1)c1ccccc1C[C@H]2c1cc2ccccc2o1 [Example 337, (1r,2′R,4R)-2′-(1-benzofuran-2-yl)-4-(3-chloroanilino)-2′,3′-dihydrospiro[cyclohexane-1,1′-indene]-4-carboxylic acid]	247 nM	30000 nM
C[C@@H](COc1ccnc2occc12)C[C@H]1Cc2ccccc2[C@]12CC[C@@](Nc1cccc(Cl)c1)(C(=O)O)CC2 [Example 606, (1r,2′S,4S)-4-(3-chloroanilino)-2′-{(2R)-3-[(furo[2,3-b]pyridin-4-yl)oxy]-2-methylpropyl}-2′,3′-dihydrospiro[cyclohexane-1,1′-indene]-4-carboxylic acid]	77.3 nM	2140 nM
O=C(O)[C@]1(Nc2cccc(Cl)c2)CC[C@@]2(CC1)c1ccccc1C[C@H]2C[C@H](COc1ccnc2ccsc12)c1ccccc1 [Example 546, (1r,2′R,4R)-4-(3-chloroanilino)-2′-{(2S)-2-phenyl-3-[(thieno[3,2-b]pyridin-7-yl)oxy]propyl}-2′,3′-dihydrospiro[cyclohexane-1,1′-indene]-4-carboxylic acid]	1640 nM	30000 nM
O=C(O)[C@]1(Nc2cccc(Cl)c2)CC[C@@]2(CC1)c1ccccc1CC2CCCOc1ccncc1C(F)(F)F (some centres unmarked) [Example 463, (1r,4r)-4-(3-chloroanilino)-2′-(3-{[3-(trifluoromethyl)pyridin-4-yl]oxy}propyl)-2′,3′-dihydrospiro[cyclohexane-1,1′-indene]-4-carboxylic acid]	59.2 nM	8230 nM
O=C(O)[C@]1(Nc2cccc(Cl)c2)CC[C@@]2(CC1)c1ccccc1CC2CCCOc1ccnc2ccccc12 (some centres unmarked) [Example 444, (1r,4r)-4-(3-chloroanilino)-2′-{3-[(quinolin-4-yl)oxy]propyl}-2′,3′-dihydrospiro[cyclohexane-1,1′-indene]-4-carboxylic acid]	85.2 nM	5440 nM
CCOc1ccc2c(c1)[C@]1(CC[C@@](Nc3cccc(Cl)c3)(C(=O)O)CC1)C(c1cccc(Oc3ccccc3)c1)C2 (single isomer, unassigned) [Example 386, (1r,4r)-4-(3-chloroanilino)-6′-ethoxy-2′-(3-phenoxyphenyl)-2′,3′-dihydrospiro[cyclohexane-1,18′-indene]-4-carboxylic acid]	161 nM	7920 nM

Molecules with a lower Ki [1], results first:

Ki [1]	SMILES	IC50 [2]
44.3 nM	O=C(O)[C@]1(Nc2cccc(Cl)c2)CC[C@]2(CC1)C(CCOc1ccncc1F)=Cc1ccccc12 [Example 190, (1r,4r)-4-(3-chloroanilino)-2′-{2-[(3-fluoropyridin-4-yl)oxy]ethyl}spiro[cyclohexane-1,1′-indene]-4-carboxylic acid]	6400 nM
17.9 nM	CC1CCc2nccc(OC[C@H](C)C[C@H]3Cc4ccccc4[C@]34CC[C@@](Nc3cccc(Cl)c3)(C(=O)O)CC4)c2C1 (stereo partly drawn) [Example 651, (1r,2′S,4S)-4-(3-chloroanilino)-2′-{(2R)-2-methyl-3-[(6-methyl-5,6,7,8-tetrahydroquinolin-4-yl)oxy]propyl}-2′,3′-dihydrospiro[cyclohexane-1,1′-indene]-4-carboxylic acid]	1260 nM
4.26 nM	CC1CCc2nccc(OC[C@H](C)CC3Cc4ccccc4[C@]34CC[C@@](Nc3cccc(Cl)c3)(C(=O)O)CC4)c21 (single isomer, unassigned) [Example 600]	512 nM
30 nM	C[C@@H](COc1ccnc2sccc12)C[C@H]1Cc2ccccc2[C@]12CC[C@@](Nc1cccc(Cl)c1)(C(=O)O)CC2 [Example 604, (1r,2′S,4S)-4-(3-chloroanilino)-2′-{(2R)-2-methyl-3-[(thieno[2,3-b]pyridin-4-yl)oxy]propyl}-2′,3′-dihydrospiro[cyclohexane-1,1′-indene]-4-carboxylic acid]	694 nM
5.3 nM	C[C@@H](COc1ccnc2c1CCCCC2)C[C@H]1Cc2ccccc2[C@]12CC[C@@](Nc1cccc(Cl)c1)(C(=O)O)CC2 [Example 633, (1r,2′S,4S)-4-(3-chloroanilino)-2′-{(2R)-2-methyl-3-[(6,7,8,9-tetrahydro-5H-cyclohepta[b]pyridin-4-yl)oxy]propyl}-2′,3′-dihydrospiro[cyclohexane-1,1′-indene]-4-carboxylic acid]	371 nM
49.7 nM	O=C(O)[C@]1(Nc2cccc(Cl)c2)CC[C@@]2(CC1)c1ccccc1CC2CCCOc1ccnc2c1CCCC2 (some centres unmarked) [Example 451, (1r,4r)-4-(3-chloroanilino)-2′-{3-[(5,6,7,8-tetrahydroquinolin-4-yl)oxy]propyl}-2′,3′-dihydrospiro[cyclohexane-1,1′-indene]-4-carboxylic acid]	3490 nM

From US20240150293A1, “SPIROCYCLOHEXANE DERIVATIVES, PHARMACEUTICAL COMPOSITIONS CONTAINING THEM AND THEIR USES AS ANTI-APOPTOTIC INHIBITORS” (LES LABORATOIRES SERVIER, priority 2021, published 2024)
